{"source": "paper PMC5804415", "about": "“Comparison of ^68Ga-DOTA-Siglec-9 and ^18F-Fluorodeoxyribose-Siglec-9: Inflammation Imaging and Radiation Dosimetry” (Contrast Media & Molecular Imaging, 2017)", "key": {"[1]": {"test_system": "LDLR^−/−ApoB^100/100 atherosclerotic mice", "design": "method as in PMID 27731409", "conditions": "mouse, in vivo; cited from earlier work"}, "in vivo": {"experiment": "in vivo", "conditions": "Sprague-Dawley, rat, iv, total radioactivity, Ex vivo biodistribution, SD", "excerpt": "Twenty-four hours before the PET studies, Sprague-Dawley rats (weight, 350 ± 22 g; n = 16) were subcutaneously injected with turpentine oil (Sigma-Aldrich) to induce focal acute, sterile inflammation [12]. Before the injection, rats were shaved on the both forelegs. Inflamed area on the left foreleg contained both skin and muscle. The intact, contralateral side (right foreleg) was used as a control.\nAfter PET imaging, rats were sacrificed and various tissues were excised and weighed, and their radioactivity levels were measured with a gamma counter (1480 Wizard 3′′, PerkinElmer, Turku, Finland). The ex vivo biodistribution results were expressed as a percentage of the injected radioactivity dose per gram of tissue (% ID/g) and target-to-background ratio."}, "[2]": {"test_system": "rats with skin/muscle inflammation (turpentine oil)", "format": "in vivo, rat", "conditions": "rat, in vivo, iv", "experimental": "Rats were divided into two groups with Group 1 being intravenously (i.v.) given ^68Ga-DOTA-Siglec-9 (16 ± 2.9 MBq, n = 8) and Group 2 ^18F-FDR-Siglec-9 (18 ± 5.1 MBq, n = 8). A 60 min dynamic PET acquisition was performed on a High Resolution Research Tomograph (HRRT; Siemens Medical Solutions, Knoxville, TN, USA). The PET data were reconstructed into 5 × 60 s and 11 × 300 s frames using an ordered-subsets expectation maximization 3D algorithm (OSEM3D). Quantitative PET image analysis was performed by defining regions of interest (ROIs) within the inflamed area (on the left foreleg), control area (on the right foreleg), kidneys, lungs, heart, liver, and urinary bladder using […] 2.8 software (Turku PET Centre). Results were expressed as standardized uptake values (SUV) and time-activity curves. SUV was calculated as a ratio of tissue radioactivity concentration (Bq/mL) and given radioactivity dose (Bq) divided by animal's body weight."}, "[3]": {"conditions": "SD", "description": "Absorbed doses of ^68Ga-DOTA-Siglec-9 and ^18F-FDR-Siglec-9 were calculated with the OLINDA/EXM version 1.0 software (organ level internal dose assessment and exponential modeling; Vanderbilt University, Nashville, TN, USA), which applies the MIRD schema (developed by the Medical Internal Radiation Dose committee of the Society of Nuclear Medicine) for radiation dose calculations in internal exposure. The software includes radionuclide information and selection of human body phantoms. The residence times derived from the rat data were integrated as the area under the time-activity curve. The residence times were converted into corresponding human values by multiplication with a factor to scale the organ and body weights: (WBody,rat/WOrgan,rat)×(WOrgan,human/WBody,human), where WBody,rat and WBody,human are the body weights of rat and human (a 70-kg male), respectively; and WOrgan,rat and WOrgan,human are the organ weights of rat and human (organ weights for a 70 kg male), respectively [14]."}}, "note": "Positions of bridges follow the written chain, without caps; N, C: chain ends. Residues, ends and D or L forms follow the SMILES beside them. *: point of attachment. DOTA = O=C(O)CN1CCN(CC(=O)O)CCN(CC(=O)*)CCN(CC(=O)O)CC1; AEEA = NCCOCCOCC(=O)O", "data": [{"smiles": "CC(C)C[C@@H]1NC(=O)CNC(=O)[C@H](CCCNC(=N)N)NC(=O)[C@H](Cc2c[nH]c3ccccc23)NC(=O)[C@H](CO)NC(=O)[C@H](CC(C)C)NC(=O)[C@H](CO)NC(=O)[C@H](CC(C)C)NC(=O)[C@H](CCCNC(=N)N)NC(=O)[C@H](C)NC(=O)[C@@H](NC(=O)COCCOCCNC(=O)CN2CCN(CC(=O)O)CCN(CC(=O)O)CCN(CC(=O)O)CC2)CSSC[C@@H](C(=O)N2CCC[C@H]2C(=O)N[C@@H](CO)C(=O)N[C@@H](CCCCN)C(=O)O)NC(=O)[C@H](CC(C)C)NC(=O)[C@H]([C@@H](C)O)NC1=O", "note": "[^68Ga-DOTA-Siglec-9, metal not drawn] ({DOTA-AEEA}-CARLSLSWRGLTLCPSK-OH; disulfide 1-14)", "values": [{"measurement": "aortic uptake, previously reported", "setting": "[1]", "value": "0.83 ± 0.33", "unit": "% ID/g"}, {"measurement": "tissue uptake at 1 h", "setting": "in vivo; Adipose tissue, BAT", "value": "0.024 ± 0.026", "unit": "%ID/g"}, {"measurement": "tissue uptake at 1 h", "setting": "in vivo; Adipose tissue, WAT", "value": "0.027 ± 0.014", "unit": "%ID/g"}, {"measurement": "tissue uptake at 1 h", "setting": "in vivo; Blood", "value": "0.099 ± 0.04", "unit": "%ID/g"}, {"measurement": "tissue uptake at 1 h", "setting": "in vivo; Bone (femoral)", "value": "0.02 ± 0.0089", "unit": "%ID/g"}, {"measurement": "tissue uptake at 1 h", "setting": "in vivo; Bone marrow", "value": "0.039 ± 0.012", "unit": "%ID/g"}, {"measurement": "tissue uptake at 1 h", "setting": "in vivo; Brain", "value": "0.0062 ± 0.0049", "unit": "%ID/g"}, {"measurement": "tissue uptake at 1 h", "setting": "in vivo; Control area", "value": "0.051 ± 0.0063", "unit": "%ID/g"}, {"measurement": "tissue uptake at 1 h", "setting": "in vivo; Heart", "value": "0.03 ± 0.011", "unit": "%ID/g"}, {"measurement": "tissue uptake at 1 h", "setting": "in vivo; Inflamed area", "value": "0.12 ± 0.032", "unit": "%ID/g"}, {"measurement": "tissue uptake at 1 h", "setting": "in vivo; Kidneys", "value": "2.8 ± 1.8", "unit": "%ID/g"}, {"measurement": "tissue uptake at 1 h", "setting": "in vivo; Liver", "value": "0.32 ± 0.16", "unit": "%ID/g"}, {"measurement": "tissue uptake at 1 h", "setting": "in vivo; Lungs", "value": "0.079 ± 0.035", "unit": "%ID/g"}, {"measurement": "tissue uptake at 1 h", "setting": "in vivo; Muscle", "value": "0.019 ± 0.0091", "unit": "%ID/g"}, {"measurement": "tissue uptake at 1 h", "setting": "in vivo; Pancreas", "value": "0.024 ± 0.0024", "unit": "%ID/g"}, {"measurement": "tissue uptake at 1 h", "setting": "in vivo; Plasma", "value": "0.13 ± 0.015", "unit": "%ID/g"}, {"measurement": "tissue uptake at 1 h", "setting": "in vivo; Small intestine", "value": "0.06 ± 0.016", "unit": "%ID/g"}, {"measurement": "tissue uptake at 1 h", "setting": "in vivo; Spleen", "value": "0.19 ± 0.11", "unit": "%ID/g"}, {"measurement": "tissue uptake at 1 h", "setting": "in vivo; male, Testis", "value": "0.035 ± 0.031", "unit": "%ID/g"}, {"measurement": "time of peak uptake in the inflamed area after the i.v. bolus injection", "setting": "[2]", "value": "about 10 min"}, {"measurement": "Human dose equivalent estimate, Adrenals", "setting": "[3]", "value": "0.014 ± 0.0012", "unit": "mSv/MBq"}, {"measurement": "Human dose equivalent estimate, Brain", "setting": "[3]", "value": "0.012 ± 0.00077", "unit": "mSv/MBq"}, {"measurement": "Human dose equivalent estimate, Breasts", "setting": "[3]", "value": "0.011 ± 0.00064", "unit": "mSv/MBq"}, {"measurement": "Human dose equivalent estimate, Gallbladder wall", "setting": "[3]", "value": "0.014 ± 0.00065", "unit": "mSv/MBq"}, {"measurement": "Human dose equivalent estimate, Heart wall", "setting": "[3]", "value": "0.0083 ± 0.0010", "unit": "mSv/MBq"}, {"measurement": "Human dose equivalent estimate, Kidneys", "setting": "[3]", "value": "0.15 ± 0.12", "unit": "mSv/MBq"}, {"measurement": "Human dose equivalent estimate, Liver", "setting": "[3]", "value": "0.012 ± 0.0024", "unit": "mSv/MBq"}, {"measurement": "Human dose equivalent estimate, Lower large intestine wall", "setting": "[3]", "value": "0.015 ± 0.00077", "unit": "mSv/MBq"}, {"measurement": "Human dose equivalent estimate, Lungs", "setting": "[3]", "value": "0.0044 ± 0.00054", "unit": "mSv/MBq"}, {"measurement": "Human dose equivalent estimate, Muscle", "setting": "[3]", "value": "0.0050 ± 0.00018", "unit": "mSv/MBq"}, {"measurement": "Human dose equivalent estimate, Osteogenic cells", "setting": "[3]", "value": "0.017 ± 0.00094", "unit": "mSv/MBq"}, {"measurement": "Human dose equivalent estimate, Ovaries", "setting": "[3]", "value": "0.015 ± 0.00064", "unit": "mSv/MBq"}, {"measurement": "Human dose equivalent estimate, Pancreas", "setting": "[3]", "value": "0.014 ± 0.00085", "unit": "mSv/MBq"}, {"measurement": "Human dose equivalent estimate, Red marrow", "setting": "[3]", "value": "0.010 ± 0.00037", "unit": "mSv/MBq"}, {"measurement": "Human dose equivalent estimate, Skin", "setting": "[3]", "value": "0.010 ± 0.00054", "unit": "mSv/MBq"}, {"measurement": "Human dose equivalent estimate, Small intestine", "setting": "[3]", "value": "0.014 ± 0.00047", "unit": "mSv/MBq"}, {"measurement": "Human dose equivalent estimate, Spleen", "setting": "[3]", "value": "0.014 ± 0.0011", "unit": "mSv/MBq"}, {"measurement": "Human dose equivalent estimate, Stomach wall", "setting": "[3]", "value": "0.013 ± 0.00065", "unit": "mSv/MBq"}, {"measurement": "Human dose equivalent estimate, Testes", "setting": "[3]", "value": "0.013 ± 0.00062", "unit": "mSv/MBq"}, {"measurement": "Human dose equivalent estimate, Thymus", "setting": "[3]", "value": "0.011 ± 0.00068", "unit": "mSv/MBq"}, {"measurement": "Human dose equivalent estimate, Thyroid", "setting": "[3]", "value": "0.011 ± 0.00072", "unit": "mSv/MBq"}, {"measurement": "Human dose equivalent estimate, Total body", "setting": "[3]", "value": "0.013 ± 0.00041", "unit": "mSv/MBq"}, {"measurement": "Human dose equivalent estimate, Upper large intestine wall", "setting": "[3]", "value": "0.014 ± 0.00046", "unit": "mSv/MBq"}, {"measurement": "Human dose equivalent estimate, Urinary bladder wall", "setting": "[3]", "value": "0.20 ± 0.087", "unit": "mSv/MBq"}, {"measurement": "Human dose equivalent estimate, Uterus", "setting": "[3]", "value": "0.018 ± 0.0017", "unit": "mSv/MBq"}, {"measurement": "Human effective dose estimate", "setting": "[3]", "value": "0.024 ± 0.0041", "unit": "mSv/MBq"}, {"measurement": "Normalized number of disintegrations, Heart wall", "setting": "[3]", "value": "0.0029 ± 0.00072", "unit": "h"}, {"measurement": "Normalized number of disintegrations, Kidneys", "setting": "[3]", "value": "0.093 ± 0.081", "unit": "h"}, {"measurement": "Normalized number of disintegrations, Liver", "setting": "[3]", "value": "0.033 ± 0.0097", "unit": "h"}, {"measurement": "Normalized number of disintegrations, Lungs", "setting": "[3]", "value": "0.0026 ± 0.0011", "unit": "h"}, {"measurement": "Normalized number of disintegrations, Muscle", "setting": "[3]", "value": "0.054 ± 0.0088", "unit": "h"}, {"measurement": "Normalized number of disintegrations, Total body", "setting": "[3]", "value": "1.3 ± 0.085", "unit": "h"}, {"measurement": "Normalized number of disintegrations, Urinary bladder wall", "setting": "[3]", "value": "0.17 ± 0.076", "unit": "h"}]}]}
